Format in all cases: biochemical
In one test the target is Human recombinant HDAC4 (Homo sapiens (Human), UniProt P56524). Put plainly: Test 2: HDAC4 assay (fluorogenic substrate, 5 μM acetyl-Gly-Ala-Lys(ε-trifluoroacetyl)-AMC). As to conditions: Test 2 (values without asterisk). As for the experimental part: Test 2: HDAC4 Assay Description
(§1) Control wells with HDAC4 only (positive control) and without HDAC4 (negative control) were included on the microplate. Bovine trypsin (4.5 μl of a 300 nM solution) was added and the plate incubated for additional 15 minutes at room temperature. The plate was placed in a fluorescence microplate reader, and read at an excitation wavelength of 360 nm and an emission wavelength of 450 nm with a 10 nm bandpath. Fluorescence values for all wells containing HDAC4 (positive control and wells with test compound) were corrected by subtracting negative control fluorescence values, and IC50 values were calculated by fitting the dose-response curves to a 4-parameter logistic function.

Test [1] deals with Human recombinant full length HDAC1 (Homo sapiens (Human), UniProt Q13547). Put plainly: Test 3: HDAC1 assay. Conditions: substrate 5 μM acetyl-Gly-Ala-Lys(acetyl)-AMC. How it is done:
as §1
Test 3: HDAC1 Assay Description
A similar assay procedure as described in Test 2 was used for HDAC1. Human recombinant full length HDAC1 expressed in a baculovirus expression system was purchased from BPS BioSciences (San Diego, Calif., U.S.A.). The substrate used in the […] assay was 5 μM of acetyl-Gly-Ala-Lys(acetyl)-AMC.

For test [2], the target named is Human recombinant full length HDAC6 (Homo sapiens (Human), UniProt Q9UBN7). Put plainly: Test 4: HDAC6 assay. As to conditions: Test 4; substrate 5 μM acetyl-Gly-Ala-Lys(acetyl)-AMC. How it is done:
as §1
Test 4: HDAC6 Assay Description
A similar assay procedure as described in Test 2 was used for HDAC6. Human recombinant full length HDAC6 expressed in a baculovirus expression system was purchased from BPS BioSciences (San Diego, Calif., U.S.A.). The substrate used in the […] assay was 5 μM of acetyl-Gly-Ala-Lys(acetyl)-AMC.

Chain of Human recombinant HDAC4 (P56524 2-1084): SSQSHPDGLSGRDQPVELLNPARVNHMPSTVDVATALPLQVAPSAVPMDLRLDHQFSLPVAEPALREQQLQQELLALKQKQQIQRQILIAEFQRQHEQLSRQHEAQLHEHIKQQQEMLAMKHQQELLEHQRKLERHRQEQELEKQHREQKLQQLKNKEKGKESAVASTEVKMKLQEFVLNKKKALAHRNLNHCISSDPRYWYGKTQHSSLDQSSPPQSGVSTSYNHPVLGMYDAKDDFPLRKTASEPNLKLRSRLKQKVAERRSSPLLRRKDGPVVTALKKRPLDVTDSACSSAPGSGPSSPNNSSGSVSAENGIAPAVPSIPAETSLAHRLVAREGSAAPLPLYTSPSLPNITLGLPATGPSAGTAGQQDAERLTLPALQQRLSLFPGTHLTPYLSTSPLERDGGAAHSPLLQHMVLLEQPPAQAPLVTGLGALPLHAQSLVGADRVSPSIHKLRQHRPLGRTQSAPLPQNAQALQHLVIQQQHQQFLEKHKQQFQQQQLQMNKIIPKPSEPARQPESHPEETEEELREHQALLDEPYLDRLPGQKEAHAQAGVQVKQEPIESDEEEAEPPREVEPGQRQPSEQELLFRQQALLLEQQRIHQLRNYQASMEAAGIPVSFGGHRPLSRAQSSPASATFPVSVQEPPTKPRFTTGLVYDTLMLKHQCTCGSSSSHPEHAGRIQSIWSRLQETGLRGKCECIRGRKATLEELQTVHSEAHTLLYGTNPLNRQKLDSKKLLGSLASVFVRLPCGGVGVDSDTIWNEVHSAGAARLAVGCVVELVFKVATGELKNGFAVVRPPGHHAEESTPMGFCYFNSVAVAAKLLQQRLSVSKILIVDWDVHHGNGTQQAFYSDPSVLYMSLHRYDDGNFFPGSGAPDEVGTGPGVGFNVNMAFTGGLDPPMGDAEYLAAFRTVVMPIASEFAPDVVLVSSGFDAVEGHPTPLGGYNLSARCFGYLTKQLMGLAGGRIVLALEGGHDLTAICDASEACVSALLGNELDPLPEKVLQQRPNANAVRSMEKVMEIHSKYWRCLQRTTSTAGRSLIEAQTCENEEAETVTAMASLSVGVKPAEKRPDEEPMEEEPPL
Chain of Human recombinant full length HDAC1 (Q13547 whole entry): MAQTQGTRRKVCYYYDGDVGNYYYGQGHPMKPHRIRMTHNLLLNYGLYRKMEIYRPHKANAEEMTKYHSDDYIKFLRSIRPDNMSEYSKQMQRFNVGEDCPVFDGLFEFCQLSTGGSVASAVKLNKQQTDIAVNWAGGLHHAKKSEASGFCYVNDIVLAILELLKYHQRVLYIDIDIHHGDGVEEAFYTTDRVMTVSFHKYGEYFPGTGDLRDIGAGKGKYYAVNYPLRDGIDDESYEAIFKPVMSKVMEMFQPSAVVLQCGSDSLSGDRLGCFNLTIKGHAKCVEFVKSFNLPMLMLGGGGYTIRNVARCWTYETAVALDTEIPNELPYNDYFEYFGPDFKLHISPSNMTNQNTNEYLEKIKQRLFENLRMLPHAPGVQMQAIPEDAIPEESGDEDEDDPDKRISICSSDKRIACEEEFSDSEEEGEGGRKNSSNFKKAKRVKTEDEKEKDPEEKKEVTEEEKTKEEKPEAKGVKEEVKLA
Chain of Human recombinant full length HDAC6 (Q9UBN7 whole entry): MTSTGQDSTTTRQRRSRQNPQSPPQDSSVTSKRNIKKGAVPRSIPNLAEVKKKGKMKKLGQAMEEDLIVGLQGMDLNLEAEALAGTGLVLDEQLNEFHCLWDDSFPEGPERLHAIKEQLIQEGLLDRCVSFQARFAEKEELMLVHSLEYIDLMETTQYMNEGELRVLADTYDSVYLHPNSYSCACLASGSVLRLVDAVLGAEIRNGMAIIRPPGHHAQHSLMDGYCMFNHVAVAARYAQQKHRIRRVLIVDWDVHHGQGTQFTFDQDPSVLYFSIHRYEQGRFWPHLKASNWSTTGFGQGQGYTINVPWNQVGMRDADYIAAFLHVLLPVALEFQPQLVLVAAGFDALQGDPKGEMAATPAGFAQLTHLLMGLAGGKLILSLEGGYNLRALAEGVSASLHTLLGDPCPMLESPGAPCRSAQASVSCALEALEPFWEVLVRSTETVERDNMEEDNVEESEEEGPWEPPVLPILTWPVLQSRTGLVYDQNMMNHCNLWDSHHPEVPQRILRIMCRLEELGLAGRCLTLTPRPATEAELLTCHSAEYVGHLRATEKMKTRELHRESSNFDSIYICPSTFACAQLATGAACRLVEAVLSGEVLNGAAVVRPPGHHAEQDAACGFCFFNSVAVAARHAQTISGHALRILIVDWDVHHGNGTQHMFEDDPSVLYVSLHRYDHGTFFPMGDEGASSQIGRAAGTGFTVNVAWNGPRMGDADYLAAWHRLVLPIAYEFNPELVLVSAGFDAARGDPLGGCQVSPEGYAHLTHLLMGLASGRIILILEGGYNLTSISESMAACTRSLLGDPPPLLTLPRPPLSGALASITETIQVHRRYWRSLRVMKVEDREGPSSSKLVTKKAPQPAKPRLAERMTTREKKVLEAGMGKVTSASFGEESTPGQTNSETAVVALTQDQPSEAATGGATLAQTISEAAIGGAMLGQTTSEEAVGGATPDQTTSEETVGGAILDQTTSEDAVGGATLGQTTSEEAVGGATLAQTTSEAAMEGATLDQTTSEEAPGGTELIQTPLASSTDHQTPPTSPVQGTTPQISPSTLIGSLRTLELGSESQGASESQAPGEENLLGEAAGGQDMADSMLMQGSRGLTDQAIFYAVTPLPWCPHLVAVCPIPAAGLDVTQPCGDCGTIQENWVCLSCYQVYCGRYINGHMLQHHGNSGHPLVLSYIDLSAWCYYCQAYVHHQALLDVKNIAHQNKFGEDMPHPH

In the case of `CCCCN(C)C[C@@H](C)NC(=O)c1ccc(-c2noc(C(F)(F)F)n2)cc1` [Example 150, (R)—N-(1-(butyl(methyl)amino)propan-2-yl)-4-(5-(trifluoromethyl)-1,2,4-oxadiazol-3-yl)benzamide], the 50% inhibitory concentration (IC50) (usually the concentration that inhibits the measured activity by half) was 1.1 nM at Human recombinant HDAC4, 1200 nM in test [1] and 3100 nM in test [2].
For `CN(C)C(=O)CNC(=O)c1ccc(-c2noc(C(F)(F)F)n2)cc1` [Example 52, N-(2-(dimethylamino)-2-oxoethyl)-4-(5-(trifluoromethyl)-1,2,4-oxadiazol-3-yl)benzamide], in that order: 3200 nM, above 10000 nM and above 10000 nM.
For the compound `O=S(=O)(Nc1ccccc1F)c1ccc(-c2noc(C(F)(F)F)n2)cc1` [Example 111, N-(2-fluorophenyl)-4-(5-(trifluoromethyl)-1,2,4-oxadiazol-3-yl)benzenesulfonamide], the 50% inhibitory concentration (IC50) on Human recombinant HDAC4 is 290 nM; in test [1] it was above 10000 nM; in test [2], 580 nM.
With `O=S(=O)(Nc1ccccc1Cl)c1ccc(-c2noc(C(F)(F)F)n2)cc1` [Example 104, N-(2-chlorophenyl)-4-(5-(trifluoromethyl)-1,2,4-oxadiazol-3-yl)benzenesulfonamide], the IC50 on Human recombinant HDAC4 is 840 nM; in test [1], above 10000 nM; in test [2], 770 nM.
Regarding `C[C@H](CN1CCCC1)NC(=O)c1ccc(-c2noc(C(F)(F)F)n2)cc1` [Example 130, (R)—N-(1-(pyrrolidin-1-yl)propan-2-yl)-4-(5-(trifluoromethyl)-1,2,4-oxadiazol-3-yl)benzamide], the 50% inhibitory concentration (IC50) is 11 nM at Human recombinant HDAC4, above 10000 nM in test [1] and 9100 nM in test [2].
In the case of `CNC(=O)CNC(=O)c1ccc(-c2noc(C(F)(F)F)n2)cc1` [Example 63, N-(2-(methylamino)-2-oxoethyl)-4-(5-(trifluoromethyl)-1,2,4-oxadiazol-3-yl)benzamide], the figures for the half-maximal inhibitory concentration (IC50) (on Human recombinant HDAC4; in test [1]; in test [2]) were 780 nM, above 10000 nM and above 10000 nM, respectively.
`O=C(Nc1ccnc(O)c1)c1ccc(-c2noc(C(F)(F)F)n2)cc1` [Example 72, N-(2-hydroxypyridin-4-yl)-4-(5-(trifluoromethyl)-1,2,4-oxadiazol-3-yl)benzamide]: the IC50 was 140 nM at Human recombinant HDAC4, above 10000 nM in test [1] and above 10000 nM in test [2].
Turning to `O=C(Nc1ccncc1)c1ccc(-c2noc(C(F)(F)F)n2)cc1` [Example 47, N-(ppyridin-4-yl)-4-(5-(trifluoromethyl)-1,2,4-oxadiazol-3-yl)benzamide], the IC50 on Human recombinant HDAC4 is 54 nM; in test [1] it was above 10000 nM; in test [2], 2100 nM.
Take `CCCN(CCC)C[C@@H](C)NC(=O)c1ccc(-c2noc(C(F)(F)F)n2)cc1` [Example 137, (R)—N-(1-(dipropylamino)propan-2-yl)-4-(5-(trifluoromethyl)-1,2,4-oxadiazol-3-yl)benzamide]: the IC50 in test [1] came to 2200 nM; in test [2], 3000 nM.
Regarding `CNC(=O)Cc1ccc(-c2noc(C(F)(F)F)n2)cc1` [Example 3, N-methyl-2-[4-(5-trifluoromethyl-[1,2,4]oxadiazol-3-yl)-phenyl]-acetamide], the IC50 was 1900 nM at Human recombinant HDAC4, above 10000 nM in test [1] and above 10000 nM in test [2].
In the case of `O=C(NCCO)c1ccc(-c2noc(C(F)(F)F)n2)cc1` [Example 13, N-(2-hydroxyethyl)-4-(5-(trifluoromethyl)-1,2,4-oxadiazol-3-yl)benzamide], the half-inhibitory concentration (IC50) on Human recombinant HDAC4 was 660 nM; in test [1], above 10000 nM; in test [2], 8900 nM.
Turning to `CC(C)CC(CO)NC(=O)c1ccc(-c2noc(C(F)(F)F)n2)cc1` (stereo not drawn) [Example 58, N-(1-hydroxy-4-methylpentan-2-yl)-4-(5-(trifluoromethyl)-1,2,4-oxadiazol-3-yl)benzamide], the IC50 at Human recombinant HDAC4 was 650 nM; in test [1], above 10000 nM; in test [2], 5500 nM.
Take `CC(C)NC(=O)Cc1ccc(-c2noc(C(F)(F)F)n2)cc1` [Example 5, N-Isopropyl-2-[4-(5-trifluoromethyl-[1,2,4]oxadiazol-3-yl)-phenyl]-acetamide]: the half-inhibitory concentration (IC50) at Human recombinant HDAC4 is 970 nM; in test [1], above 10000 nM; in test [2], 3100 nM.
Turning to `Cc1cc(NC(=O)c2ccc(-c3noc(C(F)(F)F)n3)cc2F)cc(C)n1` [Example 90, N-(2,6-dimethylpyridin-4-yl)-2-fluoro-4-(5-(trifluoromethyl)-1,2,4-oxadiazol-3-yl)benzamide], the half-maximal inhibitory concentration (IC50) at Human recombinant HDAC4 was 440 nM; in test [1] it was above 10000 nM; in test [2], 2500 nM.
Regarding `CCOC(=O)CNC(=O)Cc1ccc(-c2noc(C(F)(F)F)n2)cc1` [Example 8, Ethyl 2-(2-(4-(5-(trifluoromethyl)-1,2,4-oxadiazol-3-yl)phenyl)acetamido)acetate], the IC50 was 580 nM at Human recombinant HDAC4, above 10000 nM in test [1] and 7600 nM in test [2].
For the compound `CCN(CC)C[C@@H](C)NC(=O)c1ccc(-c2noc(C(F)(F)F)n2)cc1F` [Example 126, (R)—N-(1-(diethylamino)propan-2-yl)-2-fluoro-4-(5-(trifluoromethyl)-1,2,4-oxadiazol-3-yl)benzamide], the IC50 is 8.9 nM at Human recombinant HDAC4, above 10000 nM in test [1] and 3900 nM in test [2].
In the case of `O=C(Nc1ccnc(F)c1)c1ccc(-c2noc(C(F)(F)F)n2)cc1` [Example 71, N-(2-fluoropyridin-4-yl)-4-(5-(trifluoromethyl)-1,2,4-oxadiazol-3-yl)benzamide], the concentration for half-maximal inhibition (IC50) on Human recombinant HDAC4 was 920 nM; in test [1] it was above 10000 nM; in test [2], above 10000 nM.
On to `Cc1ccc(NS(=O)(=O)c2ccc(-c3noc(C(F)(F)F)n3)cc2)cc1` [Example 108, N-p-tolyl-4-(5-(trifluoromethyl)-1,2,4-oxadiazol-3-yl)benzenesulfonamide], for which the values for the IC50 (at Human recombinant HDAC4; in test [1]; in test [2]) were 93 nM, 5000 nM and 740 nM, respectively.
`C[C@H](CN1CCCCC1)NC(=O)c1ccc(-c2noc(C(F)(F)F)n2)cc1F` [Example 129, (R)-2-fluoro-N-(1-(piperidin-1-yl)propan-2-yl)-4-(5-(trifluoromethyl)-1,2,4-oxadiazol-3-yl)benzamide]: the IC50 at Human recombinant HDAC4 was 13 nM; in test [1], 9050 nM; in test [2] it was 3000 nM.
`CN(C)CCN(C)C(=O)c1ccc(-c2noc(C(F)(F)F)n2)cc1` [Example 37, N-(2-(dimethylamino)ethyl)-N-methyl-4-(5-(trifluoromethyl)-1,2,4-oxadiazol-3-yl)benzamide]: the values for the 50% inhibitory concentration (IC50) (on Human recombinant HDAC4; in test [1]; in test [2]) were 340 nM, above 10000 nM and above 10000 nM, respectively.
As to `O=C(NCC1CC1)c1ccc(-c2noc(C(F)(F)F)n2)cc1` [Example 26, N-(cyclopropylmethyl)-4-(5-(trifluoromethyl)-1,2,4-oxadiazol-3-yl)benzamide], the IC50 at Human recombinant HDAC4 was 610 nM; in test [1], above 10000 nM; in test [2], 3200 nM.
On to `CCN(C)C[C@@H](C)NC(=O)c1ccc(-c2noc(C(F)(F)F)n2)cc1` [Example 136, (R)—N-(1-(ethyl(methyl)amino)propan-2-yl)-4-(5-(trifluoromethyl)-1,2,4-oxadiazol-3-yl)benzamide], for which the concentration for half-maximal inhibition (IC50) is 8.9 nM on Human recombinant HDAC4, above 10000 nM in test [1] and above 10000 nM in test [2].
Turning to `CCN(C)C(=O)c1ccc(-c2noc(C(F)(F)F)n2)cc1` [Example 14, N-ethyl-N-methyl-4-(5-(trifluoromethyl)-1,2,4-oxadiazol-3-yl)benzamide], the values for the IC50 (at Human recombinant HDAC4; in test [1]; in test [2]) were 900 nM, above 10000 nM and above 10000 nM, respectively.
As to `O=C(Nc1ccccc1)c1ccc(-c2noc(C(F)(F)F)n2)cc1` [Example 35, N-phenyl-4-(5-(trifluoromethyl)-1,2,4-oxadiazol-3-yl)benzamide], the IC50 on Human recombinant HDAC4 is 6700 nM; in test [1] it was above 10000 nM; in test [2], above 10000 nM.
`O=C(NC1CCCCC1O)c1ccc(-c2noc(C(F)(F)F)n2)cc1` (stereo not drawn) [Example 61, N-(2-hydroxycyclohexyl)-4-(5-(trifluoromethyl)-1,2,4-oxadiazol-3-yl)benzamide]: the 50% inhibitory concentration (IC50) at Human recombinant HDAC4 is 790 nM; in test [1], above 10000 nM; in test [2], 7100 nM.
`COCCNC(=O)c1ccc(-c2noc(C(F)(F)F)n2)cc1` [Example 16, N-(2-methoxyethyl)-4-(5-(trifluoromethyl)-1,2,4-oxadiazol-3-yl)benzamide]: the IC50 at Human recombinant HDAC4 is 1400 nM; in test [1] it was above 10000 nM; in test [2], 6800 nM.
On to `CN1CCC(CNS(=O)(=O)c2ccc(-c3noc(C(F)(F)F)n3)cc2)C1` (stereo not drawn) [Example 115, N-((1-methylpyrrolidin-3-yl)methyl)-4-(5-(trifluoromethyl)-1,2,4-oxadiazol-3-yl)benzenesulfonamide], for which the IC50 was 2700 nM at Human recombinant HDAC4, above 10000 nM in test [1] and above 10000 nM in test [2].
As to `O=C(N[C@H]1CCNC1)c1ccc(-c2noc(C(F)(F)F)n2)cc1` [Example 87, (S)—N-(pyrrolidin-3-yl)-4-(5-(trifluoromethyl)-1,2,4-oxadiazol-3-yl)benzamide], the IC50 on Human recombinant HDAC4 is 300 nM.

The values are drawn from US9056843B2, “Trifluoromethyl-oxadiazole derivatives and their use in the treatment of disease” (NOVARTIS AG, priority 2011, dated 2015).
